Laboratory results as given in PubChem BioAssay AID1259407 (Chemical Carcinogenesis Research Information System (CCRIS), 2018).
Active and inactive are the calls of the source. The rule behind the calls is not given here.

Test system: CCRIS mutagenicity, Ames/micronucleus/aberration tests
Assay: CCRIS mutagenicity studies
[1] = Test System: AMES SALMONELLA TYPHIMURIUM, Strain/Indicator: TA97A, Metabolic Activation: NONE, Method: PREINCUBATION
[2] = Test System: AMES SALMONELLA TYPHIMURIUM, Strain/Indicator: TA98, Metabolic Activation: NONE, Method: PREINCUBATION
[3] = Test System: AMES SALMONELLA TYPHIMURIUM, Strain/Indicator: TA100, Metabolic Activation: NONE, Method: PREINCUBATION
[4] = Test System: AMES SALMONELLA TYPHIMURIUM, Strain/Indicator: TA98, Metabolic Activation: NONE, Method: STANDARD PLATE
[5] = Test System: AMES SALMONELLA TYPHIMURIUM, Strain/Indicator: TA100, Metabolic Activation: NONE, Method: STANDARD PLATE
[6] = Test System: AMES SALMONELLA TYPHIMURIUM, Strain/Indicator: TA100, Metabolic Activation: RAT, LIVER, S-9, AROCLOR 1254, Method: STANDARD PLATE

With `O=c1ccc2c(cc3ccc4cccc5ccc2c3c45)c1=O` the mutagenic call [1] was “active; positive”, the mutagenic call [2] was “inactive; negative” and the mutagenic call [3] was “inactive; negative”. For the same compound, the mutagenic call (Test System: AMES SALMONELLA TYPHIMURIUM, Strain/Indicator: TA102, Metabolic Activation: NONE, Method: PREINCUBATION) was “inactive; negative” and the mutagenic call (Test System: AMES SALMONELLA TYPHIMURIUM, Strain/Indicator: TA104, Metabolic Activation: NONE, Method: PREINCUBATION) was “inactive; negative”.
With `CNc1ccc2nccnc2c1C` the mutagenic call [2] was “inactive; negative”, the mutagenic call (Test System: AMES SALMONELLA TYPHIMURIUM, Strain/Indicator: TA98, Metabolic Activation: RAT, LIVER, S-9, PCB, Method: PREINCUBATION) was “active; positive” and the mutagenic call [3] was “inactive; negative”.
For `OC1c2c(ccc3c2ccc2ccccc23)C2OC2C1O` (stereo not given), the mutagenic call [2] was “active; positive” and the mutagenic call (Test System: CHINESE HAMSTER V-79, Strain/Indicator: V-79/6-THIOGUANINE, Metabolic Activation: NONE) was “active; positive”.
With `[O]=[V](=[O])[OH]` the mutagenic call (Test System: AMES SALMONELLA TYPHIMURIUM, Strain/Indicator: TA100, Metabolic Activation: NONE, Method: FLUCTUATION TEST) was “active; positive”, the mutagenic call (Test System: AMES SALMONELLA TYPHIMURIUM, Strain/Indicator: TA1535, Metabolic Activation: NONE, Method: STANDARD PLATE (PH 7.8, MEDIUM WITH TRIMETAPHOSPHATE IONS)) was “active; positive” and the mutagenic call (Test System: CHINESE HAMSTER G12, Strain/Indicator: G12/6-THIOGUANINE, Metabolic Activation: NONE) was “active; positive”. The mutagenic call (Test System: CHINESE HAMSTER V-79, Strain/Indicator: V-79/6-THIOGUANINE, Metabolic Activation: MOUSE, LIVER, S-9) was “inactive; negative” and the mutagenic call (Test System: E. COLI, Strain/Indicator: WP2 UVRA, Metabolic Activation: NONE, Method: SPOT TEST) was “inactive; negative”.
For `CC(=O)NSc1c2cc(O)ccc2nc2ccc(O)cc12`, the mutagenic call [1] was “active; positive”.
With `O=NN1CCSC1C(O)C(O)C(O)C(O)CO` (stereo not given) the mutagenic call [2] was “inactive; negative”, the mutagenic call [4] was “inactive; negative” and the mutagenic call (Test System: AMES SALMONELLA TYPHIMURIUM, Strain/Indicator: TA98, Metabolic Activation: RAT, LIVER, S-9, AROCLOR 1254, Method: PREINCUBATION) was “inactive; negative”. The mutagenic call (Test System: AMES SALMONELLA TYPHIMURIUM, Strain/Indicator: TA98, Metabolic Activation: RAT, LIVER, S-9, AROCLOR 1254, Method: STANDARD PLATE) was “inactive; negative”, the mutagenic call [3] was “active; positive” and the mutagenic call [5] was “active; positive”. For the same compound, the mutagenic call (Test System: AMES SALMONELLA TYPHIMURIUM, Strain/Indicator: TA100, Metabolic Activation: RAT, LIVER, S-9, AROCLOR 1254, Method: PREINCUBATION) was “active; positive” and the mutagenic call [6] was “active; positive”.
In the case of `OCc1c2ccccc2c(CO)c2c1ccc1ccccc12`, the mutagenic call (Test System: AMES SALMONELLA TYPHIMURIUM, Strain/Indicator: TA98, Metabolic Activation: RAT, LIVER, S-9, NADPH GENERATING SYSTEM, Method: PREINCUBATION) is reported as “inactive; negative” and the mutagenic call (Test System: AMES SALMONELLA TYPHIMURIUM, Strain/Indicator: TA98, Metabolic Activation: RAT, LIVER, S-105, PAPS GENERATING SYSTEM, Method: PREINCUBATION) is reported as “active; positive”.
For `Cc1ccc(S(=O)(=O)Oc2ccc(N=Nc3ccc(-c4ccc(N=Nc5c(O)ccc6cc(S(=O)(=O)O)cc(S(=O)(=O)O)c56)c(C)c4)cc3C)cc2)cc1`, the mutagenic call (Test System: AMES SALMONELLA TYPHIMURIUM, Strain/Indicator: TA98, Metabolic Activation: HAMSTER, LIVER, S-9, AROCLOR 1254 (10%), Method: PREINCUBATION) was “active; positive”, the mutagenic call (Test System: AMES SALMONELLA TYPHIMURIUM, Strain/Indicator: TA98, Metabolic Activation: HAMSTER, LIVER, S-9, Method: PREINCUBATION (PRIVAL METHOD)) was “active; positive” and the mutagenic call [2] was “inactive; negative”. The mutagenic call (Test System: AMES SALMONELLA TYPHIMURIUM, Strain/Indicator: TA98, Metabolic Activation: RAT, LIVER, S-9, AROCLOR 1254 (10%), Method: PREINCUBATION) was “inactive; negative”, the mutagenic call (Test System: AMES SALMONELLA TYPHIMURIUM, Strain/Indicator: TA100, Metabolic Activation: HAMSTER, LIVER, S-9, AROCLOR 1254 (10%), Method: PREINCUBATION) was “inactive; negative” and the mutagenic call [3] was “inactive; negative”. For the same compound, the mutagenic call (Test System: AMES SALMONELLA TYPHIMURIUM, Strain/Indicator: TA100, Metabolic Activation: RAT, LIVER, S-9, AROCLOR 1254 (10%), Method: PREINCUBATION) was “inactive; negative”, the mutagenic call (Test System: AMES SALMONELLA TYPHIMURIUM, Strain/Indicator: TA1535, Metabolic Activation: HAMSTER, LIVER, S-9, AROCLOR 1254 (10%), Method: PREINCUBATION) was “inactive; negative” and the mutagenic call (Test System: AMES SALMONELLA TYPHIMURIUM, Strain/Indicator: TA1535, Metabolic Activation: NONE, Method: PREINCUBATION) was “inactive; negative”. The mutagenic call (Test System: AMES SALMONELLA TYPHIMURIUM, Strain/Indicator: TA1535, Metabolic Activation: RAT, LIVER, S-9, AROCLOR 1254 (10%), Method: PREINCUBATION) was “inactive; negative”, the mutagenic call (Test System: AMES SALMONELLA TYPHIMURIUM, Strain/Indicator: TA1537, Metabolic Activation: HAMSTER, LIVER, S-9, AROCLOR 1254 (10%), Method: PREINCUBATION) was “inactive; negative” and the mutagenic call (Test System: AMES SALMONELLA TYPHIMURIUM, Strain/Indicator: TA1537, Metabolic Activation: NONE, Method: PREINCUBATION) was “inactive; negative”. The mutagenic call (Test System: AMES SALMONELLA TYPHIMURIUM, Strain/Indicator: TA1537, Metabolic Activation: RAT, LIVER, S-9, AROCLOR 1254 (10%), Method: PREINCUBATION) was “inactive; negative” and the mutagenic call (Test System: AMES SALMONELLA TYPHIMURIUM, Strain/Indicator: TA1538, Metabolic Activation: RAT, LIVER, S-9, AROCLOR 1254, Method: STANDARD PLATE) was “active; positive”.
In the case of `O=C1c2ccccc2Cc2ccccc21`, the mutagenic call [4] is reported as “active; positive”, the mutagenic call [5] is reported as “inactive; negative” and the mutagenic call [6] is reported as “inactive; negative”.
For `OC1c2cccc3ccc4cccc1c4c23`, the mutagenic call (Test System: AMES SALMONELLA TYPHIMURIUM, Strain/Indicator: TA98, Metabolic Activation: HUMAN, LIVER, CYTOSOL, PAPS, Method: PREINCUBATION) was “inactive; negative”.
`O=C1OCC(CCl)=C1Br` was tested, and the mutagenic call [5] was “active; positive”.
